Measurements taken from ChEMBL document CHEMBL1151471, “Vancomycin-resistant Staphylococcus aureus isolates associated with Inc18-like vanA plasmids in Michigan” (2008).
In brackets after ≈: the same amount, converted by molar mass.

Key:
Type in all cases: functional
Enterococcus faecalis [1] = experiment: Antibacterial activity against Enterococcus faecalis AIS2007003 isolated from patients rectum by broth microdilution method
Enterococcus avium = experiment: Antibacterial activity against Enterococcus avium AIS2007004 isolated from patients rectum by broth microdilution method
Enterococcus faecalis [2] = experiment: Antibacterial activity against Enterococcus faecalis HIP14333 isolated from patients rectum by broth microdilution method
Enterococcus faecalis [3] = experiment: Antibacterial activity against Enterococcus faecalis HIP15179 coisolated with vancomycin-resistant Staphylococcus aureus by broth microdilution method
Staphylococcus aureus [4] = experiment: Antibacterial activity against vancomycin-resistant Staphylococcus aureus HIP14300 isolated from patients foot wound by broth microdilution method
Staphylococcus aureus [5] = experiment: Antibacterial activity against vancomycin-resistant Staphylococcus aureus AIS2006032 isolated from patients foot wound by broth microdilution method
Staphylococcus aureus [6] = experiment: Antibacterial activity against vancomycin-resistant Staphylococcus aureus AIS2006049 isolated from patients arm wound by broth microdilution method
Staphylococcus aureus [7] = experiment: Antibacterial activity against vancomycin-resistant Staphylococcus aureus HIP15178 isolated from patients surgical wound by broth microdilution method

Compound | MIC (Enterococcus faecalis [1]) | MIC (Enterococcus avium) | MIC (Enterococcus faecalis [2]) | MIC (Enterococcus faecalis [3]) | MIC (Staphylococcus aureus [4]) | MIC (Staphylococcus aureus [5]) | MIC (Staphylococcus aureus [6]) | MIC (Staphylococcus aureus [7])
CN[C@@H]1[C@H](O[C@H]2[C@H](O[C@H]3[C@H](O)[C@@H](O)[C@H](N=C(N)N)[C@@H](O)[C@@H]3N=C(N)N)O[C@@H](C)[C@]2(O)C=O)O[C@@H](CO)[C@H](O)[C@H]1O [STREPTOMYCIN] | > 1000 µg/mL | ≤ 1000 µg/mL | ≤ 1000 µg/mL | > 1000 µg/mL | – | – | – | –
CN[C@H](CC(C)C)C(=O)N[C@H]1C(=O)N[C@@H](CC(N)=O)C(=O)N[C@H]2C(=O)N[C@H]3C(=O)N[C@H](C(=O)N[C@H](C(=O)O)c4cc(O)cc(O)c4-c4cc3ccc4O)[C@H](O)c3ccc(c(Cl)c3)Oc3cc2cc(c3O[C@@H]2O[C@H](CO)[C@@H](O)[C@H](O)[C@H]2O[C@H]2C[C@](C)(N)[C@H](O)[C@H](C)O2)Oc2ccc(cc2Cl)[C@H]1O [VANCOMYCIN] | > 512 µg/mL | 256 µg/mL (≈ 177 µM) | 1020 µg/mL (≈ 707 µM) | 512 µg/mL (≈ 353 µM) | 256 µg/mL (≈ 177 µM) | 1020 µg/mL (≈ 707 µM) | 512 µg/mL (≈ 353 µM) | 512 µg/mL (≈ 353 µM)
CO[C@H]1/C=C/O[C@@]2(C)Oc3c(C)c(O)c4c(O)c(c(/C=N/N5CCN(C)CC5)c(O)c4c3C2=O)NC(=O)/C(C)=C\C=C\[C@H](C)[C@H](O)[C@@H](C)[C@@H](O)[C@@H](C)[C@H](OC(C)=O)[C@@H]1C [RIFAMPIN] | 1 µg/mL (≈ 1.22 µM) | 1 µg/mL (≈ 1.22 µM) | 1 µg/mL (≈ 1.22 µM) | 2 µg/mL (≈ 2.43 µM) | ≤ 0.5 µg/mL | ≤ 0.5 µg/mL | ≤ 0.5 µg/mL | ≤ 0.5 µg/mL
C[C@H]1COc2c(N3CCN(C)CC3)c(F)cc3c(=O)c(C(=O)O)cn1c23.C[C@H]1COc2c(N3CCN(C)CC3)c(F)cc3c(=O)c(C(=O)O)cn1c23.O [LEVOFLOXACIN] | > 8 µg/mL | 8 µg/mL | > 8 µg/mL | 8 µg/mL | > 16 µg/mL | > 16 µg/mL | 8 µg/mL | > 16 µg/mL
CC(=O)NC[C@H]1CN(c2ccc(N3CCOCC3)c(F)c2)C(=O)O1 [LINEZOLID] | – | 2 µg/mL (≈ 5.93 µM) | – | – | – | – | – | –
CCC[C@@H]1C[C@@H](C(=O)N[C@@H]([C@H]2O[C@H](SC)[C@H](O)[C@@H](O)[C@H]2O)[C@H](C)Cl)N(C)C1 [CLINDAMYCIN] | – | – | – | – | > 16 µg/mL | > 16 µg/mL | > 16 µg/mL | > 16 µg/mL
CCCCCCCCCC(=O)N[C@@H](Cc1c[nH]c2ccccc12)C(=O)N[C@H](CC(N)=O)C(=O)N[C@@H](CC(=O)O)C(=O)N[C@@H]1C(=O)NCC(=O)N[C@@H](CCCN)C(=O)N[C@@H](CC(=O)O)C(=O)N[C@H](C)C(=O)N[C@@H](CC(=O)O)C(=O)NCC(=O)N[C@H](CO)C(=O)N[C@@H]([C@H](C)CC(=O)O)C(=O)N[C@@H](CC(=O)c2ccccc2N)C(=O)O[C@@H]1C | 2 µg/mL (≈ 1.23 µM) | 1 µg/mL (≈ 0.617 µM) | – | 1 µg/mL (≈ 0.617 µM) | ≤ 0.5 µg/mL | 1 µg/mL (≈ 0.617 µM) | 2 µg/mL (≈ 1.23 µM) | ≤ 0.5 µg/mL
GENTAMICIN | > 500 µg/mL | > 500 µg/mL | > 500 µg/mL | > 500 µg/mL | < 2 µg/mL | < 2 µg/mL | < 2 µg/mL | < 2 µg/mL
CC[C@H]1OC(=O)[C@H](C)[C@@H](O[C@H]2C[C@@](C)(OC)[C@@H](O)[C@H](C)O2)[C@H](C)[C@@H](O[C@@H]2O[C@H](C)C[C@H](N(C)C)[C@H]2O)[C@](C)(O)C[C@@H](C)C(=O)[C@H](C)[C@@H](O)[C@]1(C)O [ERYTHROMYCIN] | > 8 µg/mL | > 8 µg/mL | > 8 µg/mL | > 8 µg/mL | > 8 µg/mL | > 8 µg/mL | > 8 µg/mL | > 8 µg/mL
C[C@H]1c2cccc(O)c2C(=O)C2=C(O)[C@]3(O)C(=O)C(C(N)=O)=C(O)[C@@H](N(C)C)[C@@H]3[C@@H](O)[C@@H]21.O [DOXYCYCLINE] | 4 µg/mL | 8 µg/mL | 8 µg/mL | ≤ 2 µg/mL | ≤ 0.25 µg/mL | 1 µg/mL | ≤ 1 µg/mL | ≤ 0.5 µg/mL
Cc1onc(-c2ccccc2)c1C(=O)N[C@@H]1C(=O)N2[C@@H]1SC(C)(C)[C@@H]2C(=O)O [OXACILLIN] | – | – | – | – | > 16 µg/mL | > 16 µg/mL | > 16 µg/mL | > 16 µg/mL
